Data set [1] deals with HBV replication in HepAD38 cells. Description: Anti-HBV replication assay in HepAD38 cells (QPCR of extracellular HBV DNA). The data set is classed as cell-based, HBV (genotype D, serotype ayw). To be noted: Hepatitis B virus, 168 h, 7 days incubation, extracellular HBV DNA by QPCR, read-out: Anti-HBV EC50. The gist of the method:
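Stably transfected HepG2-derived HepAD38 cells express HBV (genotype D, ayw) once tetracycline is withdrawn. Compounds act for 7 days, after which secreted HBV DNA is quantified by QPCR relative to DMSO-treated wells.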

A short description of data set [2]: In vitro cytotoxicity assay (MTT cell viability) in HepG2 cells. To be noted: human. It counts as cell-based, human. Summed up:
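Read-out: MTT formazan absorbance at 492 nm, expressed as % of vehicle signal; CC50 by 4-parameter non-linear regression. Parental HepG2, 20,000 cells/well, treated 7 days with compound from 30 μM down to 1.0 nM.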

In the case of `O=C(NC1(CO)CC(F)(F)C1)C(=O)c1c(Cl)c(C(=O)Nc2ccc(F)c(Cl)c2)c2n1CCCC2` [Example 515, 2-chloro-N-(3-chloro-4-fluorophenyl)-3-(2-((3,3-difluoro-1-(hydroxymethyl)cyclobutyl)amino)-2-oxoacetyl)-5,6,7,8-tetrahydroindolizine-1-carboxamide], the EC50 in data set [1] was below 0.05 µM. In data set [2], the CC50 at 7 days was 5 to 30 µM.
Take `Cc1noc([C@H](C)NC(=O)C(=O)c2c(Cl)c(C(=O)Nc3ccc(F)c(F)c3)c3n2CCCC3)n1` [Example 516, (S)-2-chloro-N-(3,4-difluorophenyl)-3-(2-((1-(3-methyl-1,2,4-oxadiazol-5-yl)ethyl)amino)-2-oxoacetyl)-5,6,7,8-tetrahydroindolizine--1 carboxamide]: the EC50 in data set [1] fell in the range of 0.05 to 0.499 µM. Also, the CC50 at 7 days in data set [2] was above 30 µM.
On the same counts, the results for `Cc1noc([C@@H](C)NC(=O)C(=O)c2c(Cl)c(C(=O)Nc3ccc(F)c(F)c3)c3n2CCCC3)n1` [Example 517, (R)-2-chloro-N-(3,4-difluorophenyl)-3-(2-((1-(3-methyl-1,2,4-oxadiazol-5-yl)ethyl)amino)-2-oxoacetyl)-5,6,7,8-tetrahydroindolizine-1-carboxamidde] are 0.05 to 0.499 µM and 5 to 30 µM.
On the same counts, the results for `O=C(N[C@H]1COC[C@@H]1O)C(=O)c1c(Cl)c(C(=O)Nc2ccc(F)c(F)c2)c2n1CCCC2` [Example 518, 2-chloro-N-(3,4-difluorophenyl)-3-(2-(((3S,4R)-4-hydroxytetrahydrofuran-3-yl)amino)-2-oxoacetyl)-5,6,7,8-tetrahdyroindolinzie-1-carboxamide] are 0.05 to 0.499 µM and 5 to 30 µM.
For `O=C(N[C@H]1CCC[C@H]1O)C(=O)c1c(Cl)c(C(=O)Nc2ccc(F)c(F)c2)c2n1CCCC2` [Example 519, 2-chloro-N-(3,4-difluorophenyl)-3-(2-(((1S,2R)-2-hydroxycyclopentyl)amino)-2-oxoacetyl)-5,6,7,8-tetrahydroindoliznie-1-carboxamide], in data set [1], the EC50 lay in the range of 0.05 to 0.499 µM. Besides, the 50% cytotoxic concentration (CC50) at 7 days in data set [2] is 5 to 30 µM.
On the same counts, the results for `O=C(NC1(CO)CC(F)(F)C1)C(=O)c1c(Cl)c(C(=O)Nc2ccc(F)c(F)c2)c2n1CCCC2` [Example 520, 2-chloro-3-(2-((3,3-difluoro-1-(hydroxymethyl)cyclobutyl)amino)-2-oxoacetyl)-N-(3,4-difluorophenyl)-5,6,7,8-tetrahydroindolizine-1-carboxamide] are below 0.05 µM and above 30 µM.
On the same counts, the results for `Cc1noc([C@H](C)NC(=O)C(=O)c2c(Cl)c(C(=O)Nc3cnc(F)c(C)c3)c3n2CCCC3)n1` [Example 521, (S)-2-chloro-N-(6-fluoro-5-methylpyridin-3-yl)-3-(2-((1-(3-methyl-1,2,4-oxadiazol-5-yl)ethyl)amino)-2-oxoacetyl)-5,6,7,8-tetrahydroindolizine-1-carboxamide] are above 1 µM and above 30 µM.
For the compound `Cc1noc([C@@H](C)NC(=O)C(=O)c2c(Cl)c(C(=O)Nc3cnc(F)c(C)c3)c3n2CCCC3)n1` [Example 522, (R)-2-chloro-N-(6-fluoro-5-methylpyridin-3-yl)-3-(2-((1-(3-methyl-1,2,4-oxadiazol-5-yl)ethyl)amino)-2-oxoacetyl)-5,6,7,8-tetrahydroindolizine-1-carboxamide], the EC50 in data set [1] is above 1 µM. The CC50 at 7 days in data set [2] is above 30 µM.
On the same counts, the results for `Cc1noc([C@H](C)NC(=O)C(=O)c2c(Cl)c(C(=O)Nc3ccc(F)c(Cl)c3)c3n2CCCC3)n1` [Example 523, (S)-2-chloro-N-(3-chloro-4-fluorophenyl)-3-(2-((1-(3-methyl-1,2,4-oxadiazol-5-yl)ethyl)amino)-2-oxoacetyl)-5,6,7,8-tetrahydroindolizine-1-carboxamide] are 0.05 to 0.499 µM and 5 to 30 µM.
On to `Cc1noc([C@@H](C)NC(=O)C(=O)c2c(Cl)c(C(=O)Nc3ccc(F)c(Cl)c3)c3n2CCCC3)n1` [Example 524, (R)-2-chloro-N-(3-chloro-4-fluorophenyl)-3-(2-((1-(3-methyl-1,2,4-oxadiazol-5-yl)ethyl)amino)-2-oxoacetyl)-5,6,7,8-tetrahydroindolizine-1-carboxamide], for which the half-maximal effective concentration (EC50) in data set [1] was 0.05 to 0.499 µM. The compound further returned a CC50 at 7 days in data set [2] of 5 to 30 µM.
On the same counts, the results for `Cc1cc(NC(=O)c2c(Cl)c(C(=O)C(=O)NCC(C)(C)CO)n3c2CCCC3)cnc1F` [Example 525, 2-chloro-N-(6-fluoro-5-methylpyridin-3-yl)-3-(2-((3-hydroxy-2,2-dimethylpropyl)amino)-2-oxoacetyl)-5,6,7,8-tetrahydroindolizine-1-carboxamide] are above 1 µM and above 30 µM.
On the same counts, the results for `CC(C)(CO)CNC(=O)C(=O)c1c(Cl)c(C(=O)Nc2ccnc(F)c2)c2n1CCCC2` [Example 526, 2-chloro-N-(2-fluoropyridin-4-yl)-3-(2-((3-hydroxy-2,2-dimethylpropyl)amino)-2-oxoacetyl)-5,6,7,8-tetrahydroindolizine-1-carboxamide] are above 1 µM and above 30 µM.
On the same counts, the results for `CC(C)(CO)CNC(=O)C(=O)c1c(Cl)c(C(=O)Nc2ccc(F)c(Cl)c2)c2n1CCCC2` [Example 527, 2-chloro-N-(3-chloro-4-fluorophenyl)-3-(2-((3-hydroxy-2,2-dimethylpropyl)amino)-2-oxoacetyl)-5,6,7,8-tetrahydroindolizine-1-carboxamide] are 0.5 to 1 µM and 0.5 to 4.99 µM.
Consider `CC(C)(CO)CNC(=O)C(=O)c1c(Cl)c(C(=O)Nc2ccc(F)c(F)c2)c2n1CCCC2` [Example 528, 2-chloro-N-(3,4-difluorophenyl)-3-(2-((3-hydroxy-2,2-dimethylpropyl)amino)-2-oxoacetyl)-5,6,7,8-tetrahydroindolizine-1-carboxamide], for which the EC50 in data set [1] is 0.5 to 1 µM. The same compound yielded a CC50 at 7 days in data set [2] of 0.5 to 4.99 µM.
On the same counts, the results for `Cc1cc(NC(=O)c2c(Cl)c(C(=O)C(=O)NCC(C)(C)O)n3c2CCCC3)cnc1F` [Example 529, 2-chloro-N-(6-fluoro-5-methylpyridin-3-yl)-3-(2-((2-hydroxy-2-methylpropyl)amino)-2-oxoacetyl)-5,6,7,8-tetrahydroindolizine-1-carboxamide] are above 1 µM and above 30 µM.
For `CC(C)(O)CNC(=O)C(=O)c1c(Cl)c(C(=O)Nc2ccnc(F)c2)c2n1CCCC2` [Example 530, 2-chloro-N-(22-fluoropyridin-4-yl)-3-(22-((2-hydroxy-2-methylpropyl)amino)-2-oxoacetyl)-5,6,7,8-tetrahydroindolizine-1-carboxamide], the EC50 in data set [1] is above 1 µM. In data set [2], this compound gave a CC50 at 7 days above 30 µM.
On the same counts, the results for `O=C(N[C@H]1C[C@H](O)C1)C(=O)c1c(Cl)c(C(=O)Nc2ccc(F)c(Cl)c2)c2n1CCCC2` [Example 531, 2-chloro-N-(3-chloro-4-fluorophenyl)-3-(2-(((1r,3r)-3-hydroxycyclobutyl)amino)-2-oxoacetyl)-5,6,7,8-tetrahydroindolizine-1-carboxamide] are 0.05 to 0.499 µM and above 30 µM.
On the same counts, the results for `CC(C)(O)CNC(=O)C(=O)c1c(Cl)c(C(=O)Nc2ccc(F)c(Cl)c2)c2n1CCCC2` [Example 532, 2-chloro-N-(3-chloro-4-fluorophenyl)-3-(2-((2-hydroxy-2-methylpropyl)amino)-2-oxoacetyl)-5,6,7,8-tetrahydroindolizine-1-carboxamide] are 0.5 to 1 µM and 0.5 to 4.99 µM.
